The text below walks through data of publication PMC9074662, “Discovery of dihydrooxazolo[2,3-a]isoquinoliniums as highly specific inhibitors of hCE2” (RSC Advances, 2019).

SMILES strings stand for the structures. A value given as a limit tells only on which side of the number the result lay.

For one assay, the target named is T1, hCE1 (Homo sapiens, UniProt P23141).
T1 construct: tissue Bioreclamation IVT lot no; X008067; host or cells: pooled human liver microsomes, 50 donors
T1 sequence (P23141 18-567): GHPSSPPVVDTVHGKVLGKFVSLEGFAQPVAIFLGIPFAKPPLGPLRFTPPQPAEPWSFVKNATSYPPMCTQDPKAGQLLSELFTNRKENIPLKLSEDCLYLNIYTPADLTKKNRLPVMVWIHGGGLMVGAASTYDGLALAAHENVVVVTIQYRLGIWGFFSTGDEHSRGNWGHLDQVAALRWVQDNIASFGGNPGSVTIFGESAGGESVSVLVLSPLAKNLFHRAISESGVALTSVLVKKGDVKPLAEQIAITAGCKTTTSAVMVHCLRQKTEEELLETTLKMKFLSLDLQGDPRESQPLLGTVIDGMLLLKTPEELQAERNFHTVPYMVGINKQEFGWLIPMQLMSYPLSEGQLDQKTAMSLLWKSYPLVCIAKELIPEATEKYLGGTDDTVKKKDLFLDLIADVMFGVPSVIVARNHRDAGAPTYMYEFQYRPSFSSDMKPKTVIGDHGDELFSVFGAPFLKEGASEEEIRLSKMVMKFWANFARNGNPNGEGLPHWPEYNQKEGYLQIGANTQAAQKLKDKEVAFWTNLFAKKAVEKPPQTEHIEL
Briefly: hCE1 inhibition assay (DME hydrolysis in human liver microsomes). The class given is biochemical. The settings on record: DME probe substrate (3 μM), HLM, PBS pH 6.8, 37 °C. An excerpt:
We designed and synthesized more than 30 derivatives of DCZ0358. However, the five-ring quaternary ammonium component of some derivatives was unstable to decompose easily into its hydrolyzate 23b. With 12 stable compounds in hand, we conducted experiments to assay inhibitory activities against both hCE1 and hCE2 using a panel of fluorescent probe substrates.[33–36]D-Luciferin methyl ester (DME) was used as a probe substrate, and nevadensin (a specific hCE1 inhibitor) was used as a positive inhibitor control for hCE1. […] DME was used as a probe substrate for evaluating the inhibitory effects of all DCZ0358 derivatives on hCE1, while nevadensin (a specific hCE1 inhibitor) was used as a positive control.[39] Briefly, 100 μL incubation mixture containing 91 μL PBS (pH 6.8), 2 μL inhibitor at different concentrations and 5 μL HLM (1 μg mL^−1, final concentration), were pre-incubated at 37 °C for 10 min. Subsequently, 2 μL DME (3 μM final concentration, close to the Km value of DME in HLM) was added to initiate the reaction. After incubating for 10 min at 37 °C in a shaking bath, the reaction was stopped by the addition of LDR (100 μL). The microplate reader (SpectraMax® iD3, Molecular Devices, Austria) was used for luminescence measurements. The gain value of luminescence detection was set at 140 volts, and the integration time was set at 1 s. The chemical structure of DME and its hydrolytic metabolite (D-luciferin), as well as the detection conditions for D-luciferin are depicted in Table S1. ^† The negative control incubation (DMSO only) was carried out under the same conditions. The residual activity was calculated using the following formula, the residual activity (%) = (the florescence intensity in the presence of inhibitor)/the florescence intensity in negative control × 100%. The residual activities are show in Fig. S1. ^†
A general note: Liver microsomes are vesicles of endoplasmic reticulum, rich in cytochrome P450 enzymes.

A further assay addresses T2, hCE2 (Homo sapiens, UniProt O00748).
T2 construct: tissue Bioreclamation IVT lot no; X008067; host or cells: pooled human liver microsomes, 50 donors
T2 sequence (O00748 27-559): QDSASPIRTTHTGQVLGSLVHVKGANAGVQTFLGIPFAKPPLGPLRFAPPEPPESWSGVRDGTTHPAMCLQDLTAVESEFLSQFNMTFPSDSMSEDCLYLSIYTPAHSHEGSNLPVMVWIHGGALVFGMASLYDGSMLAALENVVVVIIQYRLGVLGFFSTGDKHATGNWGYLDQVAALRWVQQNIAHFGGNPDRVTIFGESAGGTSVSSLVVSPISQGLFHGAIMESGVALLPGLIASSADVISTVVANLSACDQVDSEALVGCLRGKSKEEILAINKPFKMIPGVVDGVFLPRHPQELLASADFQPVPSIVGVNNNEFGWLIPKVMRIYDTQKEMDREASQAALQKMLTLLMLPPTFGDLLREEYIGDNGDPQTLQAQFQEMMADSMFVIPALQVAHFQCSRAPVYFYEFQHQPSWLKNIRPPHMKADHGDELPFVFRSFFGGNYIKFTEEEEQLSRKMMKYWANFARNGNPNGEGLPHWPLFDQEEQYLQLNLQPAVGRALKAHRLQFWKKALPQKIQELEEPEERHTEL
The experiment in a line: hCE2 inhibition assay (FD hydrolysis in human liver microsomes). It is filed as biochemical. The settings on record: for IC50: FD probe substrate (5 μM), HLM, PBS pH 7.4, 37 °C; for Selectivity IC50(hCE1)/IC50(hCE2): ratio of IC50 values, hCE2 over hCE1 selectivity (fold). The protocol:
In brief, 200 μL incubation mixture containing 0.1 M PBS (PH = 7.4), human liver microsomes (2 μg mL^−1, final concentration) and each inhibitor. […] After incubating for 30 min at 37 °C in a shaking bath, the reaction was stopped by the addition of acetonitrile (200 μL). The chemical structure of FD and its hydrolytic metabolite (fluorescein), as well as the detection conditions for fluorescein are depicted in Table S1. ^† The negative control incubation (DMSO only) was also carried out under the same conditions.[42] The residual activity was calculated using the formula mentioned above in hCE1 inhibition assay.

By IC50 is commonly meant the midpoint of a concentration-inhibition curve. Read a high IC50 as weaker potency. With `COc1ccc(-c2cc3ccc(OC)c(OC)c3c3[n+]2C(OC)CO3)cc1OCc1ccc([N+](=O)[O-])cc1` (stereo not shown) [Compound 23h, 3,9,10-Trimethoxy-5-(4-methoxy-3-((4-nitrobenzyl)oxy)phenyl)-2,3-dihydrooxazolo[2,3-a]isoquinolin-4-ium], at hCE1, the IC50 is greater than 100 µM. Further, on hCE2, 3.32 ± 0.87 µM corresponded to half-maximal inhibition (IC50) and the “Selectivity IC50(hCE1)/IC50(hCE2)” value is on record as greater than 30.14.

Consider `COc1ccc(-c2cc3ccc(OC)c(OC)c3c3[n+]2C(OC)CO3)cc1OCc1ccc2cccnc2c1` (stereo not shown) [Compound 23j, 3,9,10-Trimethoxy-5-(4-methoxy-3-(quinolin-7-ylmethoxy)phenyl)-2,3-dihydrooxazolo[2,3-a]isoquinolin-4-ium], for which the IC50 at hCE1 was greater than 100 µM; against hCE2, 3.77 ± 0.25 µM. Further, the “Selectivity IC50(hCE1)/IC50(hCE2)” value on hCE2 is given as greater than 26.51.

Turning to `COc1ccc2cc(-c3ccc4c(c3)OCO4)n(C(CO)OC)c(=O)c2c1OC` (stereo not shown) [Compound 23b], on hCE1, inhibition was half-maximal at 36.8 ± 7.7 µM (IC50). In addition, at hCE2, the concentration for half-maximal inhibition (IC50) was 41.7 ± 18.1 µM and the “Selectivity IC50(hCE1)/IC50(hCE2)” value is greater than 0.88.

At hCE1, `COc1ccc(-c2cc3ccc(OC)c(OC)c3c3[n+]2C(OC)CO3)cc1OCc1ccc(-c2ccccc2)cc1` (stereo not shown) [Compound 23l, 5-(3-([1,1′-Biphenyl]-4-ylmethoxy)-4-methoxyphenyl)-3,9,10-trimethoxy-2,3-dihydrooxazolo[2,3-a]isoquinolin-4-ium] showed an IC50 greater than 100 µM. At hCE2, the half-maximal inhibitory concentration (IC50) stood at 2.64 ± 0.45 µM and the “Selectivity IC50(hCE1)/IC50(hCE2)” value is recorded as greater than 37.89.

`COc1ccc(COc2cc(-c3cc4ccc(OC)c(OC)c4c4[n+]3C(OC)CO4)ccc2OC)cc1` (stereo not shown) [Compound 23d, 3,9,10-trimethoxy-5-(4-methoxy-3-((4-methoxybenzyl)oxy)phenyl)-2,3-dihydrooxazolo[2,3-a]isoquinolin-4-ium] came in with an IC50 at hCE1 greater than 100 µM. Besides, at hCE2, the IC50 is 6.89 µM and the “Selectivity IC50(hCE1)/IC50(hCE2)” value is listed as greater than 14.52.

Consider `COc1ccc(-c2cc3ccc(OC)c(OC)c3c3[n+]2C(OC)CO3)cc1OCc1ccc(C(C)(C)C)cc1` (stereo not shown) [Compound 23m, 5-(3-((4-(tert-Butyl)benzyl)oxy)-4-methoxyphenyl)-3,9,10-trimethoxy-2,3-dihydrooxazolo[2,3-a]isoquinolin-4-ium], for which the IC50 against hCE1 was greater than 100 µM. At hCE2, half-maximal inhibition (IC50) required 2.33 ± 0.2 µM and the “Selectivity IC50(hCE1)/IC50(hCE2)” value is reported as greater than 42.81.

`COc1ccc(-c2cc(=O)c3c(O)c(OC)c(O)c(OC)c3o2)cc1` [Nevadensin, reference compound] yielded an IC50 against hCE1 of 2.64 ± 0.22 µM.

On to `COc1ccc(-c2cc3ccc(OC)c(OC)c3c3[n+]2C(OC)CO3)cc1OCc1ccc(C(C)C)cc1` (stereo not shown) [Compound 23n, 5-(3-((4-Isopropylbenzyl)oxy)-4-methoxyphenyl)-3,9,10-trimethoxy-2,3-dihydrooxazolo[2,3-a]isoquinolin-4-ium], for which the values for the IC50 on hCE1 and against hCE2 were greater than 100 µM and 1.66 ± 0.21 µM, respectively. For the same compound, the “Selectivity IC50(hCE1)/IC50(hCE2)” value at hCE2 was greater than 60.31.

For the compound `COc1ccc(-c2cc3ccc(OC)c(OC)c3c3[n+]2C(OC)CO3)cc1OCc1ccc(C)cc1` (stereo not shown) [Compound 23k, 3,9,10-Trimethoxy-5-(4-methoxy-3-((4-methylbenzyl)oxy)phenyl)-2,3-dihydrooxazolo[2,3-a]isoquinolin-4-ium], the IC50 on hCE1 is greater than 100 µM. Besides, on hCE2, the IC50 turned out to be 5.58 ± 0.94 µM and the “Selectivity IC50(hCE1)/IC50(hCE2)” value is greater than 17.94.

The compound `COc1ccc2cc(-c3ccc4c(c3)OCO4)[n+]3c(c2c1OC)OCC3OC` (stereo not shown) [Compound 23a] registered an IC50 against hCE1 of 4.04 ± 0.4 µM. Besides, at hCE2, the IC50 was 16 ± 1.49 µM and the “Selectivity IC50(hCE1)/IC50(hCE2)” value is greater than 0.25.

In the case of `COc1ccc(-c2cc3ccc(OC)c(OC)c3c3[n+]2C(OC)CO3)cc1OCc1ccc(S(C)(=O)=O)cc1` (stereo not shown) [Compound 23e, 3,9,10-Trimethoxy-5-(4-methoxy-3-((4-(methylsulfonyl)benzyl)oxy)phenyl)-2,3-dihydrooxazolo[2,3-a]isoquinolin-4-ium], the IC50 against hCE1 was greater than 100 µM. Besides, on hCE2, the midpoint of inhibition, the IC50, lay at 11.5 ± 1.76 µM and the “Selectivity IC50(hCE1)/IC50(hCE2)” value is given as greater than 8.72.

In turn, `COc1ccc(-c2cc3ccc(OC)c(OC)c3c3[n+]2C(OC)CO3)cc1OCc1ccc(C(F)(F)F)cc1` (stereo not shown) [Compound 23i, 3,9,10-Trimethoxy-5-(4-methoxy-3-((4-(trifluoromethyl)benzyl)oxy)phenyl)-2,3-dihydrooxazolo[2,3-a]isoquinolin-4-ium] returned an IC50 against hCE1 greater than 100 µM. Also, at hCE2, it took 2.43 ± 0.28 µM to reach half-maximal inhibition (IC50) and the “Selectivity IC50(hCE1)/IC50(hCE2)” value is given as greater than 41.22.

Turning to `COC(=O)c1ccc(COc2cc(-c3cc4ccc(OC)c(OC)c4c4[n+]3C(OC)CO4)ccc2OC)cc1` (stereo not shown) [Compound 23f, 3,9,10-Trimethoxy-5-(4-methoxy-3-((4-(methoxycarbonyl)benzyl)oxy)phenyl)-2,3-dihydrooxazolo[2,3-a]isoquinolin-4-ium], the IC50 against hCE1 was greater than 100 µM; against hCE2, 5.73 ± 0.79 µM. For the same compound, the “Selectivity IC50(hCE1)/IC50(hCE2)” value on hCE2 is greater than 17.46.

In turn, `COc1ccc(-c2cc3ccc(OC)c(OC)c3c3[n+]2C(OC)CO3)cc1OCc1ccc(C#N)cc1` (stereo not shown) [Compound 23g, 5-(3-((4-Cyanobenzyl)oxy)-4-methoxyphenyl)-3,9,10-trimethoxy-2,3-dihydrooxazolo[2,3-a]isoquinolin-4-ium] came in with an IC50 at hCE1 greater than 100 µM. In addition, at hCE2, the IC50 amounted to 3.33 ± 0.32 µM and the “Selectivity IC50(hCE1)/IC50(hCE2)” value was greater than 30.07.
